Data published in patent US11180483B2, “Substituted reverse pyrimidine Bmi-1 inhibitors” (PTC Therapeutics, Inc., priority 2012, dated 2021).

These molecules were tested on Bmi-1 (assay: Sandwich ELISA Assay (Bmi-1 ELISA) in HT-1080 cells).
Type: cell-based
Method in brief: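 HT-1080 cells exposed to compound in 0.5% final DMSO for 40-48 h at 37 °C, then lysed. Bmi-1 was quantified by sandwich ELISA: mouse monoclonal capture, rabbit anti-Bmi-1 detection, HRP anti-rabbit and TMB. Read at OD450 (OD570 reference) against a recombinant GST-Bmi-1 standard curve (0-8000 pg/mL).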
With `CCc1nc2ncc(Cl)cc2n1-c1nc(N)cc(Nc2ccc(C(F)(F)F)cc2)n1` [Cpd 105, 2-(6-chloro-2-ethyl-1H-imidazo[4,5-b]pyridin-1-yl)-N-[4-(trifluoromethyl)phenyl]pyrimidine-4,6-diamine] the EC50 was 0.01 to 0.1 µM.
Work on `Cc1nc2ncccc2n1-c1nc(N)c(F)c(Nc2ccc(OC(F)F)cc2)n1` [Cpd 138, N-[4-(difluoromethoxy)phenyl]-5-fluoro-2-(2-methyl-1H-imidazo[4,5-b]pyridin-1-yl)pyrimidine-4,6-diamine] yielded an EC50 of 0.01 to 0.1 µM.
`CCc1nc2ccccc2n1-c1nc(N)c(F)c(Nc2ccc(Cl)cc2)n1` [Cpd 274, N-(4-chlorophenyl)-2-(2-ethyl-1H-benzimidazol-1-yl)-5-fluoropyrimidine-4,6-diamine] showed an EC50 of 0.01 to 0.1 µM.
With `Cc1ccc(Nc2nc(-c3c(C(F)(F)F)nc4ccccn34)ncc2F)cc1` [Cpd 43, 5-fluoro-N-(4-methylphenyl)-2-[2-(trifluoromethyl)imidazo[1,2-a]pyridin-3-yl]pyrimidin-4-amine] the EC50 was 0.01 to 0.1 µM.
Molecule `Cc1nc2ccc(F)cc2n1-c1nc(N)cc(Nc2ccc(C(F)(F)F)cc2)n1` [Cpd 71, 2-(6-fluoro-2-methyl-1H-benzimidazol-1-yl)-N-[4-(trifluoromethyl)phenyl]pyrimidine-4,6-diamine] has an EC50 of 0.01 to 0.1 µM.
In the case of `COc1ccc(Nc2cc(N)nc(-n3c(C)nc4ccccc43)n2)cc1` [Cpd 197, N-(4-methoxyphenyl)-2-(2-methyl-1H-benzimidazol-1-yl)pyrimidine-4,6-diamine], the EC50 is reported as 0.001 to 0.01 µM.
`Nc1cc(Nc2ccc(C(F)(F)F)cc2)nc(-c2c(CO)nc3ccc(F)cn23)n1` [Cpd 84, [3-(4-amino-6-{[4-(trifluoromethyl)phenyl]amino}pyrimidin-2-yl)-6-fluoroimidazo[1,2-a]pyridin-2-yl]methanol] gave an EC50 of 0.1 to 3 µM.
`Cc1ccc(Nc2nc(-c3c(C(F)(F)F)nc4ccccn34)ncc2Cl)cc1` [Cpd 44, 5-chloro-N-(4-methylphenyl)-2-[2-(trifluoromethyl)imidazo[1,2-a]pyridin-3-yl]pyrimidin-4-amine] showed an EC50 of 0.1 to 3 µM.
For `Cc1nc2ccccn2c1-c1nccc(Nc2ccc(C(F)(F)F)cc2)n1` [Cpd 3, 2-(2-methylimidazo[1,2-a]pyridin-3-yl)-N-[4-(trifluoromethyl)phenyl]pyrimidin-4-amine], the EC50 was 0.01 to 0.1 µM.
With `Cc1ccc(Nc2cc(N)nc(-n3c(C)nc4ccccc43)n2)cc1` [Cpd 196, 2-(2-methyl-1H-benzimidazol-1-yl)-N-(4-methylphenyl)pyrimidine-4,6-diamine] the EC50 was 0.001 to 0.01 µM.
`Cc1nc2ccccc2n1-c1nc(N)c(F)c(Nc2ccc(OC(F)F)cc2)n1` [Cpd 106, N-[4-(difluoromethoxy)phenyl]-5-fluoro-2-(2-methyl-1H-benzimidazol-1-yl)pyrimidine-4,6-diamine] gave an EC50 of 0.01 to 0.1 µM.
For `COc1ccc(Nc2ccnc(-c3c(C(F)(F)F)n(C)c4ccc(Cl)cc34)n2)cc1` [Cpd 23, 2-[5-chloro-1-methyl-2-(trifluoromethyl)-1H-indol-3-yl]-N-(4-methoxyphenyl)pyrimidin-4-amine], the EC50 was 0.1 to 3 µM.
`Cc1nc2c(F)cc(F)cc2n1-c1nc(N)c(F)c(Nc2ccc3c(c2)OCO3)n1` [Cpd 240, N-(1,3-benzodioxol-5-yl)-2-(4,6-difluoro-2-methyl-1H-benzimidazol-1-yl)-5-fluoropyrimidine-4,6-diamine] showed an EC50 of 0.001 to 0.01 µM.
`Cc1nc2cc(C#N)ccc2n1-c1nc(N)c(F)c(Nc2ccc(OC(F)F)cc2)n1` [Cpd 226, 1-(4-amino-6-{[4-(difluoromethoxy)phenyl]amino}-5-fluoropyrimidin-2-yl)-2-methyl-1H-benzimidazole-5-carbonitrile] was tested, and the EC50 was 0.1 to 3 µM.
For `COc1ccc(Nc2nc(-n3c(C)nc4ccc(F)cc43)nc(N)c2F)cc1` [Cpd 179, 5-fluoro-2-(6-fluoro-2-methyl-1H-benzimidazol-1-yl)-N-(4-methoxyphenyl)pyrimidine-4,6-diamine], the EC50 was 0.001 to 0.01 µM.
With `Cc1nc2ccc(Cl)cc2n1-c1nc(N)cc(Nc2ccc(C(F)(F)F)c(F)c2)n1` [Cpd 96, 2-(6-chloro-2-methyl-1H-benzimidazol-1-yl)-N-[3-fluoro-4-(trifluoromethyl)phenyl]pyrimidine-4,6-diamine] the EC50 was 0.1 to 3 µM.
For `Cc1nc2ccc(F)cc2n1-c1nc(N)c(F)c(Nc2ccc(OC(F)F)c(F)c2)n1` [Cpd 111, N-[4-(difluoromethoxy)-3-fluorophenyl]-5-fluoro-2-(6-fluoro-2-methyl-1H-benzimidazol-1-yl)pyrimidine-4,6-diamine], the EC50 was 0.01 to 0.1 µM.
For `COc1cccc(Nc2nc(-n3c(C)nc4ccccc43)nc(N)c2F)c1` [Cpd 195, 5-fluoro-N-(3-methoxyphenyl)-2-(2-methyl-1H-benzimidazol-1-yl)pyrimidine-4,6-diamine], the EC50 was 0.1 to 3 µM.
For `Cc1nc2ccccn2c1-c1nc(N)c(F)c(Nc2ccc(C(F)(F)F)cc2)n1` [Cpd 169, 5-fluoro-2-(2-methylimidazo[1,2-a]pyridin-3-yl)-N-[4-(trifluoromethyl)phenyl]pyrimidine-4,6-diamine], the EC50 was 0.1 to 3 µM.
In the case of `Cc1nc2ccccn2c1-c1nc(N)c(F)c(Nc2ccc(OC(F)F)cc2)n1` [Cpd 170, N-[4-(difluoromethoxy)phenyl]-5-fluoro-2-(2-methylimidazo[1,2-a]pyridin-3-yl)pyrimidine-4,6-diamine], the EC50 is reported as 0.1 to 3 µM.
Molecule `COc1ccc(Nc2nc(-n3c(C)nc4cc([N+](=O)[O-])ccc43)nc(N)c2F)cc1` [Cpd 255, 5-fluoro-N-(4-methoxyphenyl)-2-(2-methyl-5-nitro-1H-benzimidazol-1-yl)pyrimidine-4,6-diamine] has an EC50 of 0.1 to 3 µM.
Work on `Cc1nc2ccccc2n1-c1nc(NCCO)cc(Nc2ccc(C(F)(F)F)cc2)n1` [Cpd 57, 2-{[2-(2-methyl-1H-benzimidazol-1-yl)-6-{[4-(trifluoromethyl)phenyl]amino}pyrimidin-4-yl]amino}ethanol] yielded an EC50 of 0.1 to 3 µM.
Molecule `Cc1nc2ccc(F)cc2n1-c1nc(N)c(F)c(Nc2ccc(OC(F)F)cc2)n1` [Cpd 110, N-[4-(difluoromethoxy)phenyl]-5-fluoro-2-(6-fluoro-2-methyl-1H-benzimidazol-1-yl)pyrimidine-4,6-diamine] has an EC50 of 0.01 to 0.1 µM.
`Cc1ccc(Nc2ccnc(-c3c(C(F)(F)F)nc4ccccn34)n2)cc1Cl` [Cpd 36, N-(3-chloro-4-methylphenyl)-2-[2-(trifluoromethyl)imidazo[1,2-a]pyridin-3-yl]pyrimidin-4-amine] showed an EC50 of 0.01 to 0.1 µM.
Molecule `Nc1nc(-n2c(C3CC3)nc3ncc(F)cc32)nc(Nc2ccc(OC(F)F)cc2)c1F` [Cpd 155, 2-(2-cyclopropyl-6-fluoro-1H-imidazo[4,5-b]pyridin-1-yl)-N-[4-(difluoromethoxy)phenyl]-5-fluoropyrimidine-4,6-diamine] has an EC50 of 0.01 to 0.1 µM.
In the case of `COc1ccc(Nc2nc(-n3c(C)nc4ccc(N)cc43)nc(N)c2F)cc1` [Cpd 256, 2-(6-amino-2-methyl-1H-benzimidazol-1-yl)-5-fluoro-N-(4-methoxyphenyl)pyrimidine-4,6-diamine], the EC50 is reported as 0.01 to 0.1 µM.
`Cc1nc2c(F)cccc2n1-c1nc(N)c(F)c(Nc2ccc(OC(F)F)cc2)n1` [Cpd 135, N-[4-(difluoromethoxy)phenyl]-5-fluoro-2-(4-fluoro-2-methyl-1H-benzimidazol-1-yl)pyrimidine-4,6-diamine] was tested, and the EC50 was 0.01 to 0.1 µM.
Work on `COc1ccc(Nc2nc(-n3c(C)nc4ccc([N+](=O)[O-])cc43)nc(N)c2F)cc1` [Cpd 233, 5-fluoro-N-(4-methoxyphenyl)-2-(2-methyl-6-nitro-1H-benzimidazol-1-yl)pyrimidine-4,6-diamine] yielded an EC50 of 0.01 to 0.1 µM.
`Nc1nc(-n2c(C3CC3)nc3c(F)cccc32)nc(Nc2ccc(OC(F)F)cc2)c1F` [Cpd 141, 2-(2-cyclopropyl-4-fluoro-1H-benzimidazol-1-yl)-N-[4-(difluoromethoxy)phenyl]-5-fluoropyrimidine-4,6-diamine] was tested, and the EC50 was 0.01 to 0.1 µM.
Work on `COc1ccc(Nc2nc(-c3c(C)nn4ccccc34)nc(N)c2F)cc1` [Cpd 239, 5-fluoro-N-(4-methoxyphenyl)-2-(2-methylpyrazolo[1,5-a]pyridin-3-yl)pyrimidine-4,6-diamine] yielded an EC50 of 0.01 to 0.1 µM.
Molecule `Cc1ccc2nc(C)n(-c3nc(N)cc(Nc4ccc(C(F)(F)F)cc4)n3)c2c1` [Cpd 86, 2-(2,6-dimethyl-1H-benzimidazol-1-yl)-N-[4-(trifluoromethyl)phenyl]pyrimidine-4,6-diamine] has an EC50 of 0.01 to 0.1 µM.
`COCCNc1cc(Nc2ccc(C(F)(F)F)cc2)nc(-n2c(C)nc3ccccc32)n1` [Cpd 58, N^4-(2-methoxyethyl)-2-(2-methyl-1H-benzimidazol-1-yl)-N^6-[4-(trifluoromethyl)phenyl]pyrimidine-4,6-diamine] showed an EC50 of 0.1 to 3 µM.
`CCc1nc2ccccc2n1-c1nc(N)c(F)c(Nc2ccc(Cl)c(F)c2)n1` [Cpd 275, N-(4-chloro-3-fluorophenyl)-2-(2-ethyl-1H-benzimidazol-1-yl)-5-fluoropyrimidine-4,6-diamine] was tested, and the EC50 was 0.01 to 0.1 µM.
`Cc1nc2ccccc2n1-c1nc(N)cc(Nc2ccc(N(C)C)cc2)n1` [Cpd 198, N-[4-(dimethylamino)phenyl]-2-(2-methyl-1H-benzimidazol-1-yl)pyrimidine-4,6-diamine] gave an EC50 of 0.001 to 0.01 µM.
For `Cc1ccc(Nc2nc(-n3c(C)nc4ccc(N)cc43)nc(N)c2F)cc1` [Cpd 258, 2-(6-amino-2-methyl-1H-benzimidazol-1-yl)-5-fluoro-N-(4-methylphenyl)pyrimidine-4,6-diamine], the EC50 was 0.001 to 0.01 µM.
`CCc1nc2cc(F)ccc2n1-c1nc(N)c(F)c(Nc2ccc(C(F)(F)F)cc2)n1` [Cpd 162, 2-(2-ethyl-5-fluoro-1H-benzimidazol-1-yl)-5-fluoro-N-[4-(trifluoromethyl)phenyl]pyrimidine-4,6-diamine] gave an EC50 of 0.01 to 0.1 µM.
`COc1ccc(Nc2ccnc(-c3c(C(F)(F)F)nc4ccc(OC)cn34)n2)cc1` [Cpd 50, N-(4-methoxyphenyl)-2-[6-methoxy-2-(trifluoromethyl)imidazo[1,2-a]pyridin-3-yl]pyrimidin-4-amine] was tested, and the EC50 was 0.01 to 0.1 µM.
Work on `FC(F)(F)c1nc2ccccn2c1-c1nccc(Nc2ccc(-n3cccn3)cc2)n1` [Cpd 39, N-[4-(1H-pyrazol-1-yl)phenyl]-2-[2-(trifluoromethyl)imidazo[1,2-a]pyridin-3-yl]pyrimidin-4-amine] yielded an EC50 of 0.1 to 3 µM.
